Results taken from ChEMBL document CHEMBL1136528, “Novel pyrrolyllactone and pyrrolyllactam indolinones as potent cyclin-dependent kinase 2 inhibitors” (Bioorg Med Chem Lett, 2003).

Assays:
[1] = target: Proto-oncogene tyrosine-protein kinase Src (Homo sapiens, UniProt P12931); assay: Inhibitory activity was tested against Src protein tyrosine kinase
[2] = target: Vascular endothelial growth factor receptor 2 (Homo sapiens, UniProt P35968); assay: Inhibitory activity was tested against FLK kinase
[3] = target: Cyclin-dependent kinase 2 (Homo sapiens, UniProt P24941); assay: Inhibitory activity against Cyclin-dependent kinase 2
[4] = target: Platelet-derived growth factor receptor beta (Homo sapiens, UniProt P09619); assay: Inhibitory activity was tested against Platelet-derived growth factor receptor beta
Chain of Platelet-derived growth factor receptor beta (P09619 whole entry): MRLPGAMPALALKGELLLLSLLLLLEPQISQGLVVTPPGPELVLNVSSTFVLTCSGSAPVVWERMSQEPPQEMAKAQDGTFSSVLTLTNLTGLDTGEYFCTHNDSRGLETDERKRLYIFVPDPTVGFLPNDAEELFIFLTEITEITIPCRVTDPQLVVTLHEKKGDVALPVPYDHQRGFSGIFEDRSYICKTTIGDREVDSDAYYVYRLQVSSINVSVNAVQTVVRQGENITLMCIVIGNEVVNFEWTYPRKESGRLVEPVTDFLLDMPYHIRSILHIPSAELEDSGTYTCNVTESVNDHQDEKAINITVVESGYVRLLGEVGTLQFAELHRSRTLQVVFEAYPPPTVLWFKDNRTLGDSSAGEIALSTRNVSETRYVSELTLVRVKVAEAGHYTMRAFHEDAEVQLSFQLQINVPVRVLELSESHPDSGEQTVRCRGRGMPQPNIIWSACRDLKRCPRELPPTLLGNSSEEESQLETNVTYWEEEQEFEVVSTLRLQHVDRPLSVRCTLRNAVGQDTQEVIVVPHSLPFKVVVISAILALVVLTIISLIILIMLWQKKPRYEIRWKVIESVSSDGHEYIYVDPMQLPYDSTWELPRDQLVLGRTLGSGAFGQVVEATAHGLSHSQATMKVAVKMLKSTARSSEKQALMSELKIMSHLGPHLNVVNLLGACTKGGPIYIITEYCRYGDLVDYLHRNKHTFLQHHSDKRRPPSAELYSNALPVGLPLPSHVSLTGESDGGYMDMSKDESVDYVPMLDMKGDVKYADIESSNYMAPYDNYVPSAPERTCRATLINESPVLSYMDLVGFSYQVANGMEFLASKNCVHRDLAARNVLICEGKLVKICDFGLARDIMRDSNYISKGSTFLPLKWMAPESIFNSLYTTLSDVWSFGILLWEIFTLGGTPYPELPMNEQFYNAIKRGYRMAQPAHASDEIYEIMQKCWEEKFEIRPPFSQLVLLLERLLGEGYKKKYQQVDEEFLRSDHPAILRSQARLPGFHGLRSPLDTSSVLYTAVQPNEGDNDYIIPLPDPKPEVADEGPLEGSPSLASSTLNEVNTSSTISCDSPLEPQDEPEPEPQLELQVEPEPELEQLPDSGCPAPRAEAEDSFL

Chain of Proto-oncogene tyrosine-protein kinase Src (P12931 2-536 limits assumed): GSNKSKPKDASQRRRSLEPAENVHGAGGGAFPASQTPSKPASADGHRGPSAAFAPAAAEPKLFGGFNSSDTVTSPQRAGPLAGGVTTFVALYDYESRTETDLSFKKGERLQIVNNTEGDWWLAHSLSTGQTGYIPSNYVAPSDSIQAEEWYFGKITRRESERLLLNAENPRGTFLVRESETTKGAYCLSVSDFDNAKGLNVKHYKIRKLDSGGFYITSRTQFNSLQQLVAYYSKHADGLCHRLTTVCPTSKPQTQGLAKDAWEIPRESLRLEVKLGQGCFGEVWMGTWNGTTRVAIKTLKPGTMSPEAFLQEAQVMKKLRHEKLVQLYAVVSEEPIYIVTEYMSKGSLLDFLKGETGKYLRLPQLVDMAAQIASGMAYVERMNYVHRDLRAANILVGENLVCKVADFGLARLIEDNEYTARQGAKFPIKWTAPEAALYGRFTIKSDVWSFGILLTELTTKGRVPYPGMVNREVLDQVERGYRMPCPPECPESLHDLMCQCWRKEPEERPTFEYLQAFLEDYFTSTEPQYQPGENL
Chain of Vascular endothelial growth factor receptor 2 (P35968 whole entry): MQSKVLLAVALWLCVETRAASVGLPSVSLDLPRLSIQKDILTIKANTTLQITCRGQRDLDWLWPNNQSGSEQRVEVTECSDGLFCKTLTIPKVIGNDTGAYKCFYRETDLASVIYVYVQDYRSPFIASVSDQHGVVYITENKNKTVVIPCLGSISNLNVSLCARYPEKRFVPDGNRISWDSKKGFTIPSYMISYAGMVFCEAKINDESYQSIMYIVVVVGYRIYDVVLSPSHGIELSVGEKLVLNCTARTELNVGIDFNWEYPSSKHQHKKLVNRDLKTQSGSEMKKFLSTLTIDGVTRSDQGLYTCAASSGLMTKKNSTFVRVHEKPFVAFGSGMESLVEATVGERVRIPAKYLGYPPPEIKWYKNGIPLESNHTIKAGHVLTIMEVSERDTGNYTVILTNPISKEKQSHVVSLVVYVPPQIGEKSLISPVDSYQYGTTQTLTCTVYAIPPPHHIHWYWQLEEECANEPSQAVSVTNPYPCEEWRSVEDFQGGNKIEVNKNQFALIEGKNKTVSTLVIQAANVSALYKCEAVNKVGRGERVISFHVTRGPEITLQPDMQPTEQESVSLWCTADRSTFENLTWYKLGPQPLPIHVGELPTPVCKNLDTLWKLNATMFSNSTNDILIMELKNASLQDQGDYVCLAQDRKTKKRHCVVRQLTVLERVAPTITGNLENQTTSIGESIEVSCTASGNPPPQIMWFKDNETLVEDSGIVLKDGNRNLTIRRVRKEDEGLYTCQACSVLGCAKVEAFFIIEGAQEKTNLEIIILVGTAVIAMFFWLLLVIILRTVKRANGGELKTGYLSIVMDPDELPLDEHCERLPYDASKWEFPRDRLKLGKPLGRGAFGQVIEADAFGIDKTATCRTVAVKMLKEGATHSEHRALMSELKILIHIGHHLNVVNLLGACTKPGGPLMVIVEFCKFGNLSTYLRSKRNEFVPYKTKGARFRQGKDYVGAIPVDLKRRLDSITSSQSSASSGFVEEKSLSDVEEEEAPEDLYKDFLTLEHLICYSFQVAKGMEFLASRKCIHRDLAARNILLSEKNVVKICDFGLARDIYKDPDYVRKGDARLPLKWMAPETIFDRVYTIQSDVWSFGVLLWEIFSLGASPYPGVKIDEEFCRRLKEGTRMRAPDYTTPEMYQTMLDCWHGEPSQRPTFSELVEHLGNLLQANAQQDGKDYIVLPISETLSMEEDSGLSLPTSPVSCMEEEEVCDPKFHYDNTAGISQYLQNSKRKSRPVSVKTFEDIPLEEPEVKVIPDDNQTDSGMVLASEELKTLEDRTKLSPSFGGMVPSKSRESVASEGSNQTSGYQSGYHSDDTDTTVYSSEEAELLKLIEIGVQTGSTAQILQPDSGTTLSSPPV

Row | Compound | IC50 [1] [nM] | IC50 [2] [nM] | IC50 [3] [nM] | IC50 [4] [nM]
1 | CNS(=O)(=O)c1ccc2c(c1)/C(=C/c1[nH]cc3c1CCNC3=O)C(=O)N2 |  |  | 9 | 
2 | O=C1Nc2cc(-c3ccccc3)ccc2/C1=C/c1[nH]cc2c1CCOC2=O | 8400 | 2000 | > 10000 | 1100
3 | CNS(=O)(=O)c1ccc2c(c1)/C(=C/c1[nH]cc3c1CCOC3=O)C(=O)N2 | > 20000 | 6600 | 4 | > 20000
4 | O=C1Nc2ccc(Cl)cc2/C1=C/c1[nH]cc2c1CCOC2=O | > 20000 | > 20000 | 88 | 2100
5 | CN(C)S(=O)(=O)c1ccc2c(c1)/C(=C/c1[nH]cc3c1CCNC3=O)C(=O)N2 |  |  | 68 | 
6 | COc1ccc2c(c1)/C(=C/c1[nH]cc3c1CCNC3=O)C(=O)N2 |  |  | 250 | 
7 | O=C1Nc2cccc(C3CCNCC3)c2/C1=C/c1[nH]cc2c1CCNC2=O |  |  | 49 | 
8 | O=C1Nc2ccc(Br)cc2/C1=C/c1[nH]cc2c1CCNC2=O |  |  | 530 | 
9 | COc1ccc2c(c1)NC(=O)/C2=C\c1[nH]cc2c1CCOC2=O | > 20000 | > 20000 | 1500 | 1400
10 | O=C1Nc2ccc(C(=O)O)cc2/C1=C/c1[nH]cc2c1CCOC2=O | > 20000 | 6200 | 4 | > 20000
11 | O=C1Nc2cccc(CCO)c2/C1=C/c1[nH]cc2c1CCNC2=O |  |  | 340 | 

Next, values leading:

Row | IC50 [1] [nM] | IC50 [2] [nM] | IC50 [3] [nM] | IC50 [4] [nM] | Compound
12 | > 20000 | 10000 | 82 | > 20000 | O=C1Nc2ccc(F)cc2/C1=C/c1[nH]cc2c1CCOC2=O
13 | > 20000 | 6700 | 64 | > 20000 | CC(C)NS(=O)(=O)c1ccc2c(c1)/C(=C/c1[nH]cc3c1CCOC3=O)C(=O)N2
14 |  |  | 5700 |  | O=C1Nc2cc(-c3ccccc3)ccc2/C1=C/c1[nH]cc2c1CCNC2=O
15 | 13000 | 6600 | 12 | > 20000 | NS(=O)(=O)c1ccc2c(c1)/C(=C/c1[nH]cc3c1CCOC3=O)C(=O)N2
16 | > 20000 | > 20000 | 270 | > 20000 | Cc1cccc2c1/C(=C/c1[nH]cc3c1CCOC3=O)C(=O)N2
17 | > 20000 | 11000 | 190 | 18000 | O=C1Nc2ccc(Br)cc2/C1=C/c1[nH]cc2c1CCOC2=O
18 | > 20000 | > 20000 | 40 | > 20000 | COc1ccc2c(c1)/C(=C/c1[nH]cc3c1CCOC3=O)C(=O)N2
19 | 1100 | 490 | 9 | 1100 | O=C1Nc2cccc(C3CCNCC3)c2/C1=C/c1[nH]cc2c1CCOC2=O
20 | > 20000 | > 20000 | 33 | > 20000 | CN(C)S(=O)(=O)c1ccc2c(c1)/C(=C/c1[nH]cc3c1CCOC3=O)C(=O)N2
21 |  |  | 300 |  | O=C1Nc2ccc(F)cc2/C1=C/c1[nH]cc2c1CCNC2=O
22 | > 20000 | 1200 | 30 | > 20000 | O=C1Nc2cccc(CCO)c2/C1=C/c1[nH]cc2c1CCOC2=O
23 |  |  | 68 |  | O=C1Nc2ccc(C(=O)O)cc2/C1=C/c1[nH]cc2c1CCNC2=O
